Assay results taken from the supplement of paper PMC4862054.

Key:
Settings in all cases: incubation time: 72 h
MDA-MB-453 [1] = test: normalised viability (% of control), CellTiter-Blue; higher = more viable cells (100 = DMSO, 0 = benzethonium chloride kill control)
Method: (§1)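 DSRT, CellTiter-Blue viability, 72 h incubation. Signal is normalised to DMSO and benzethonium chloride controls. Value is the normalised response at dose 1.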

CAL-85-1 [2] = test: as above
Method: as §1

CAL-51 [3] = test: as above
Method: as §1

HCC1937 [4] = test: as above
Method: as §1

MDA-MB-468 [5] = test: as above
Method: as §1

MFM-223 [6] = test: as above
Method: as §1

Hs578T [7] = test: as above
Method: as §1

SK-BR-3 [8] = test: as above
Method: as §1

HCC1143 [9] = test: as above
Method: as §1

BT-549 [10] = test: as above
Method: as §1

MDA-MB-231 [11] = test: as above
Method: as §1

HDQ-P1 [12] = test: as above
Method: as §1

DU-4475 [13] = test: as above
Method: as §1

HCC1599 [14] = test: as above
Method: as §1

CAL-148 [15] = test: as above
Method: as §1

CAL-120 [16] = test: as above
Method: as §1

BT-474 [17] = test: as above
Method: as §1

MDA-MB-436 [18] = test: as above
Method: as §1

MDA-MB-453 [19] = test: normalised response (% of control), CellTiter-Glo; higher = more viable cells (100 = DMSO, 0 = benzethonium chloride kill control)
Outline: (§2)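 Breast cancer cell lines (20 µl suspension) were seeded into 384-well plates holding compound at 5 concentrations in 10-fold steps over a compound-specific 10,000-fold range, then incubated 72 h. CellTox Green fluorescence (485/520 nm) was read first, then CellTiter-Glo luminescence after 10 min at room temperature. Each plate was normalised to 0.1 % DMSO (100) and a positive kill control (0). Each value is the normalised signal at a single concentration of the series.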

CAL-85-1 [20] = test: as above
Outline: as §2

CAL-51 [21] = test: as above
Outline: as §2

HCC1937 [22] = test: as above
Outline: as §2

MDA-MB-468 [23] = test: as above
Outline: as §2

MFM-223 [24] = test: as above
Outline: as §2

Hs578T [25] = test: as above
Outline: as §2

SK-BR-3 [26] = test: as above
Outline: as §2

MCF-10A = test: as above
Outline: as §2

HCC1143 [27] = test: as above
Outline: as §2

BT-549 [28] = test: as above
Outline: as §2

MDA-MB-231 [29] = test: as above
Outline: as §2

HDQ-P1 [30] = test: as above
Outline: as §2

DU-4475 [31] = test: as above
Outline: as §2

HCC1599 [32] = test: as above
Outline: as §2

CAL-148 [33] = test: as above
Outline: as §2

CAL-120 [34] = test: as above
Outline: as §2

BT-474 [35] = test: as above
Outline: as §2

MDA-MB-436 [36] = test: as above
Outline: as §2

Row | Compound | normalised viability (MDA-MB-453 [1]) [%] | normalised viability (CAL-85-1 [2]) [%] | normalised viability (CAL-51 [3]) [%] | normalised viability (HCC1937 [4]) [%] | normalised viability (MDA-MB-468 [5]) [%] | normalised viability (MFM-223 [6]) [%] | normalised viability (Hs578T [7]) [%] | normalised viability (SK-BR-3 [8]) [%] | normalised viability (HCC1143 [9]) [%] | normalised viability (BT-549 [10]) [%] | normalised viability (MDA-MB-231 [11]) [%] | normalised viability (HDQ-P1 [12]) [%] | normalised viability (DU-4475 [13]) [%] | normalised viability (HCC1599 [14]) [%] | normalised viability (CAL-148 [15]) [%] | normalised viability (CAL-120 [16]) [%] | normalised viability (BT-474 [17]) [%] | normalised viability (MDA-MB-436 [18]) [%] | normalised response (MDA-MB-453 [19]) [%] | normalised response (CAL-85-1 [20]) [%] | normalised response (CAL-51 [21]) [%] | normalised response (HCC1937 [22]) [%] | normalised response (MDA-MB-468 [23]) [%] | normalised response (MFM-223 [24]) [%] | normalised response (Hs578T [25]) [%] | normalised response (SK-BR-3 [26]) [%] | normalised response (MCF-10A) [%] | normalised response (HCC1143 [27]) [%] | normalised response (BT-549 [28]) [%] | normalised response (MDA-MB-231 [29]) [%] | normalised response (HDQ-P1 [30]) [%] | normalised response (DU-4475 [31]) [%] | normalised response (HCC1599 [32]) [%] | normalised response (CAL-148 [33]) [%] | normalised response (CAL-120 [34]) [%] | normalised response (BT-474 [35]) [%] | normalised response (MDA-MB-436 [36]) [%]
1 | COc1cc2/c(=N/c3ccc(Br)cc3F)nc[nH]c2cc1OCC1CCN(C)CC1 [Vandetanib] (1 nM) | 94.7 | 110 | 97 | 82.5 | 94.9 | 94.8 | 101 | 84 | 106 | 87.6 | 88.2 | 56.1 | 110 | 112 | 98.4 | 124 | 107 | 81.1 | 86 | 92.6 | 118 | 102 | 88.1 | 87 | 93.9 | 68.2 | 89.4 | 96.2 | 92.7 | 91.7 | 90.7 | 94.8 | 81.8 | 83.8 | 88.7 | 85.2 | 86.1
2 | Oc1ccc2c(c1)CC[C@H](c1ccccc1)[C@@H]2c1ccc(OCCN2CCCC2)cc1 [Lasofoxifene] (0.1 nM) | 95 | 83.1 | 104 | 80.3 | 99.4 | 89.1 | 96.6 | 97.1 | 76.4 | 114 | 90.2 | 87 | 93.1 | 92.2 | 115 | 83.3 | 107 | 102 | 115 | 95.4 | 86.3 | 100 | 106 | 103 | 99.6 | 113 | 109 | 104 | 97.1 | 106 | 104 | 102 | 104 | 109 | 107 | 106 | 99.2
3 | C=C1C[C@@H]2[C@H](CC[C@]3(C)C(=O)CC[C@@H]23)[C@@]2(C)C=CC(=O)C=C12 [Exemestane] (1 nM) | 99.2 | 88.2 | 95.2 | 102 | 117 | 88.7 | 112 | 91.5 | 85.9 | 114 | 93.5 | 100 | 90.9 | 84.5 | 89.2 | 86.5 | 81.5 | 95.2 | 108 | 97.2 | 88.6 | 93.6 | 101 | 108 | 106 | 107 | 112 | 102 | 91.6 | 105 | 101 | 106 | 112 | 98.6 | 101 | 97.6 | 134
4 | O=C(/C=C/c1cccc(S(=O)(=O)Nc2ccccc2)c1)NO [Belinostat] (1 nM) | 101 | 92.5 | 102 | 111 | 103 | 93.4 | 109 | 91.5 | 107 | 89.5 | 102 | 84.2 | 93.1 | 97.1 | 97.1 | 97.4 | 106 | 120 | 97 | 97.8 | 75.1 | 96.5 | 94.9 | 89.2 | 92.9 | 87.8 | 87 | 91.8 | 96.1 | 95.8 | 93.5 | 98.9 | 97.6 | 99.9 | 96.6 | 91 | 91.7
